Measurements taken from patent publication US9957271B2, “Substituted bicyclic aza-heterocycles and analogues as sirtuin modulators” (GlaxoSmithKline, LLC, priority 2012, dated 2018).

Assays:
SIRT1 [1] = biological target: T1, SIRT1 (Homo sapiens, UniProt Q96EB6); test: TAMRA based mass spectrometry assay of SIRT1 activity; assay type: biochemical; settings: TAMRA peptide substrate; for TAMRA EC1.5 (μM): concentration of test compound giving 150% activation of SIRT1; for Emax: percent maximum fold activation of SIRT1, read-out: TAMRA % Fold Act
T1 sequence (Q96EB6 1-747): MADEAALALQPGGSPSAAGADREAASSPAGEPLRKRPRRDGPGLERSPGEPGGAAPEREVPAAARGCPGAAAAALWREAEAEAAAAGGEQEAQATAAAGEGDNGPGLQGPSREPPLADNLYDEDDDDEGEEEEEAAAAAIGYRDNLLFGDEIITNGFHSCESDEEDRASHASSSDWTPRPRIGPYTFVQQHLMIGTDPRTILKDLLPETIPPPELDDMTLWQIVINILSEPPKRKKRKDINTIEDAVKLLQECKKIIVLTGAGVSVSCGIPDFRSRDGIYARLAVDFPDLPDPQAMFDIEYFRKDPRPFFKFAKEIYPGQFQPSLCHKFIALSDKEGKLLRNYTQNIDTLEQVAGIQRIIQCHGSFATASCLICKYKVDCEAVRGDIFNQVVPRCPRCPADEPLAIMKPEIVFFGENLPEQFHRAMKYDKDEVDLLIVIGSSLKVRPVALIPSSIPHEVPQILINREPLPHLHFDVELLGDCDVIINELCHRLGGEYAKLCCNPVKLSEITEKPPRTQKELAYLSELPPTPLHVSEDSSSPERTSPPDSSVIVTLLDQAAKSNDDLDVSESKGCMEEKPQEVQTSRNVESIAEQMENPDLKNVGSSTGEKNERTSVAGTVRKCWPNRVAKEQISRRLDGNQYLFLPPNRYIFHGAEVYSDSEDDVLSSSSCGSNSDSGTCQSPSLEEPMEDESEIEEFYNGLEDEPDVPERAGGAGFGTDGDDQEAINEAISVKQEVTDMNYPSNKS
How it was run: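 Recombinant N-terminal His-tagged human SIRT1 (10 nM, E. coli) incubated 25 min at 25 °C with 0.5 μM 5TMR-labelled p53-derived acetyl-peptide and 120 μM βNAD+ in Tris-acetate pH 8 buffer with DTT and 0.05% BSA, compound at varying concentrations. Stopped with formic acid; deacetylated peptide or OAADPR measured by mass spectrometry relative to DMSO controls.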

SIRT1 [2] = biological target: T1, SIRT1; test: Trp mass spectrometry assay of SIRT1 activity; assay type: biochemical; settings: Trp peptide substrate; for Trp EC1.5 (μM): concentration of test compound giving 150% activation of SIRT1; for Emax: percent maximum fold activation of SIRT1, read-out: Trp % Fold Act
How it was run: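 His-tagged SIRT1 expressed in E. coli BL21(DE3), 10 nM, incubated 25 min at 25° C. with 0.5 μM Ac-RHKK(Ac)W-NH2 peptide and 120 μM βNAD+ in 50 mM HEPES pH 7.5, […], 1 mM DTT, 0.05% BSA; formic acid stop. OAADPR or deacetylated peptide measured by mass spectrometry; EC1.5 and percent maximum activation versus DMSO control.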

TAMRA EC1.5 (μM) (SIRT1 [1]) | Emax (SIRT1 [1]) [%] | Trp EC1.5 (μM) (SIRT1 [2]) | Emax (SIRT1 [2]) [%] | Structure (SMILES)
B (EC1.5 1-25 μM) | < 350 | B (EC1.5 1-25 μM) | < 350 | Cc1cc(C)c(NC(=O)c2cnc3ccc(-c4ccccc4C(F)(F)F)nn23)cn1 [Compound 125]
A (EC1.5<1 μM) | < 350 | B (EC1.5 1-25 μM) | < 350 | O=C(Nc1cccc(N2CCOCC2)n1)c1cnc2ccc(-c3ccc(F)c(F)c3F)nn12 [Compound 126]
C (EC1.5>25 μM) | < 350 | C (EC1.5>25 μM) | < 350 | O=C(Nc1ccncc1)c1cnc2ccc(-c3ccc(F)c(F)c3F)nn12 [Compound 128]
C (EC1.5>25 μM) | < 350 | C (EC1.5>25 μM) | < 350 | O=C(Nc1cccnc1)c1cnc2ccc(-c3ccc(F)c(F)c3F)nn12 [Compound 131]
A (EC1.5<1 μM) | ≥ 350 | A (EC1.5<1 μM) | < 350 | O=C(Nc1cccc(N2CCOCC2)n1)c1cnc2ccc(-c3ccccc3F)nn12 [Compound 133]
A (EC1.5<1 μM) | ≥ 350 | C (EC1.5>25 μM) | < 350 | O=C(Nc1ccnc(N2CCC2)c1)c1cnc2ccc(-c3ccccc3F)nn12 [Compound 134]
A (EC1.5<1 μM) | ≥ 350 | B (EC1.5 1-25 μM) | < 350 | O=C(Nc1cccc(CN2CCOCC2)n1)c1cnc2ccc(-c3cccc(Cl)c3F)nn12 [Compound 140]
C (EC1.5>25 μM) | < 350 | C (EC1.5>25 μM) | < 350 | O=C(Nc1ccncc1)c1cnc2ccc(-c3cccc(Cl)c3F)nn12 [Compound 141]
C (EC1.5>25 μM) | < 350 | A (EC1.5<1 μM) | < 350 | O=C(Nc1cccnc1)c1cnc2ccc(-c3cccc(Cl)c3F)nn12 [Compound 143]
A (EC1.5<1 μM) | ≥ 350 | B (EC1.5 1-25 μM) | ≥ 350 | O=C(Nc1cnc2ccc(-c3ccccc3C(F)(F)F)nn12)c1cccnc1OCC(O)CO (centres unmarked) [Compound 146]
B (EC1.5 1-25 μM) | < 350 | B (EC1.5 1-25 μM) | < 350 | O=C(Nc1ccc(CN2CCCC2)nc1)c1cnc2ccc(-c3ccccc3C(F)(F)F)nn12 [Compound 149]

The next lines start with the compound.

Structure (SMILES) | TAMRA EC1.5 (μM) (SIRT1 [1]) | Emax (SIRT1 [1]) [%] | Trp EC1.5 (μM) (SIRT1 [2]) | Emax (SIRT1 [2]) [%]
Cc1nc2ccc(-c3ccccc3C(F)(F)F)nn2c1C(=O)Nc1cccc(N2CCC2)n1 [Compound 69] | A (EC1.5<1 μM) | ≥ 350 | B (EC1.5 1-25 μM) | ≥ 350
Cc1nc2ccc(-c3ccccc3C(F)(F)F)nn2c1C(=O)Nc1cccc(N2CCOCC2)n1 [Compound 71] | A (EC1.5<1 μM) | ≥ 350 | A (EC1.5<1 μM) | ≥ 350
O=C(Nc1ccnc(OCC(O)CO)n1)c1cnc2ccc(-c3ccccc3C(F)(F)F)nn12 (centres unmarked) [Compound 74] | A (EC1.5<1 μM) | ≥ 350 | A (EC1.5<1 μM) | ≥ 350
O=C(Nc1ccncc1)c1cnc2ccc(-c3ccccc3C(F)(F)F)nn12 [Compound 77] | B (EC1.5 1-25 μM) | ≥ 350 | B (EC1.5 1-25 μM) | < 350
Cc1cccc(NC(=O)c2cnc3ccc(-c4ccccc4C(F)(F)F)nn23)n1 [Compound 78] | A (EC1.5<1 μM) | ≥ 350 | A (EC1.5<1 μM) | ≥ 350
O=C(Nc1ccncn1)c1cnc2ccc(-c3ccccc3C(F)(F)F)nn12 [Compound 80] | B (EC1.5 1-25 μM) | ≥ 350 | C (EC1.5>25 μM) | < 350
O=C(Nc1cnc2ccc(-c3ccccc3C(F)(F)F)nn12)c1cccc(OCC(O)CO)n1 (centres unmarked) [Compound 83] | A (EC1.5<1 μM) | ≥ 350 | A (EC1.5<1 μM) | ≥ 350
O=C(Nc1ncccn1)c1cnc2ccc(-c3ccccc3C(F)(F)F)nn12 [Compound 84] | B (EC1.5 1-25 μM) | ≥ 350 | B (EC1.5 1-25 μM) | ≥ 350
O=C(Nc1cnc2ccc(-c3ccccc3C(F)(F)F)nn12)c1cccnc1 [Compound 86] | C (EC1.5>25 μM) | < 350 | C (EC1.5>25 μM) | < 350
Cn1cnc(C(=O)Nc2cnc3ccc(-c4ccccc4C(F)(F)F)nn23)c1 [Compound 92] | B (EC1.5 1-25 μM) | ≥ 350 | C (EC1.5>25 μM) | < 350
Cn1nccc1C(=O)Nc1cnc2ccc(-c3ccccc3C(F)(F)F)nn12 [Compound 93] | C (EC1.5>25 μM) | < 350 | C (EC1.5>25 μM) | < 350
O=C(Nc1cccc(N2CCOCC2)n1)c1cnc2ccc(-c3ccccc3Cl)nn12 [Compound 95] | A (EC1.5<1 μM) | ≥ 350 | A (EC1.5<1 μM) | < 350
Cc1ccc(NC(=O)c2cnc3ccc(-c4ccccc4C(F)(F)F)nn23)cn1 [Compound 98] | B (EC1.5 1-25 μM) | ≥ 350 | B (EC1.5 1-25 μM) | ≥ 350
Cc1cc(C)nc(NC(=O)c2cnc3ccc(-c4ccccc4C(F)(F)F)nn23)c1 [Compound 101] | A (EC1.5<1 μM) | ≥ 350 | B (EC1.5 1-25 μM) | ≥ 350
Cc1cc(NC(=O)c2cnc3ccc(-c4ccccc4C(F)(F)F)nn23)ccn1 [Compound 102] | A (EC1.5<1 μM) | ≥ 350 | B (EC1.5 1-25 μM) | ≥ 350
CN(C)c1cccc(NC(=O)c2cnc3ccc(-c4ccccc4C(F)(F)F)nn23)n1 [Compound 104] | A (EC1.5<1 μM) | ≥ 350 | B (EC1.5 1-25 μM) | < 350
O=C(Nc1cncc(F)c1)c1cnc2ccc(-c3ccccc3C(F)(F)F)nn12 [Compound 107] | B (EC1.5 1-25 μM) | ≥ 350 | B (EC1.5 1-25 μM) | < 350
O=C(Nc1ccc(F)cn1)c1cnc2ccc(-c3ccccc3C(F)(F)F)nn12 [Compound 110] | A (EC1.5<1 μM) | ≥ 350 | B (EC1.5 1-25 μM) | < 350
Cn1ccc(NC(=O)c2cnc3ccc(-c4ccccc4C(F)(F)F)nn23)n1 [Compound 112] | B (EC1.5 1-25 μM) | ≥ 350 | B (EC1.5 1-25 μM) | < 350
Cc1ncccc1NC(=O)c1cnc2ccc(-c3ccccc3C(F)(F)F)nn12 [Compound 113] | B (EC1.5 1-25 μM) | < 350 | B (EC1.5 1-25 μM) | < 350
O=C(Nc1cccc(CN2CCOCC2)n1)c1cnc2ccc(-c3ccccc3Cl)nn12 [Compound 116] | A (EC1.5<1 μM) | ≥ 350 | C (EC1.5>25 μM) | < 350
O=C(Nc1cnccn1)c1cnc2ccc(-c3ccccc3Cl)nn12 [Compound 119] | B (EC1.5 1-25 μM) | < 350 | C (EC1.5>25 μM) | < 350
O=C(Nc1cnc2ccc(-c3ccccc3C(F)(F)F)nn12)c1cncc(N2CCOCC2)n1 [Compound 120] | A (EC1.5<1 μM) | ≥ 350 | B (EC1.5 1-25 μM) | ≥ 350
O=C(Nc1cnc2ccc(-c3ccccc3C(F)(F)F)nn12)c1nccs1 [Compound 122] | A (EC1.5<1 μM) | ≥ 350 | B (EC1.5 1-25 μM) | < 350
